Test results published in paper PMC5063506, “A Novel Class of Small Molecule Agonists with Preference for Human over Mouse TLR4 Activation” (PLoS ONE, 2016).

Assays:
wild-type C57BL/6 mice = assay: In vivo serum cytokines in wild-type C57BL/6 mice; set-up: species or system mouse; settings: 50 μg IP, serum at 2 h (IL-12 p40, IL-6) and 6 h (IL-12 p40, MIG, RANTES)
Text: The humanized TLR4/MD-2 mice, described in detail in [15], express human TLR4 and human MD-2 from bacterial artificial chromosome transgenes that were bred to the mouse TLR4/MD-2 double-knockout (DKO) on a C57BL/6J background. Because the hMD-2 BAC transgene is integrated on the Y-chromosome, only male mice were used in the study. Generally, hMD-2 BAC+ males are bred to hTLR4 BAC+ females (both on DKO background) and male pups were screened for the presence of hTLR4 BAC. Double positives served as the fully humanized TLR4/MD-2 mice and hTLR4 BAC negative mice served as functional KO. Wild-type C57BL/6 mice were bred in parallel. All breeding was performed in an SPF facility at the University of Washington and all protocols were approved by the University of Washington IACUC. For in vivo cytokines, mice were injected intraperitoneally with 50 μg of either AZ618 or MPL in 0.2 ml PBS. Mice were bled from the retroorbital sinus 2 h after injection and terminal cardiocentesis was performed at 6 h for the second blood sample. Serum samples were analyzed via MILLIPLEX kits (EMD Millipore).
C57BL/6 mice (6–12 per group) were immunized IP with 50 μg MPL or AZ618 and then were bled at 2 h via retro-orbital route and at 6 h via cardiac puncture. Serum was analyzed by multiplex Millipore kits for cytokine content. […]

cotton rat PBMCs = assay: Cytokine gene expression in cotton rat PBMCs (QuantiGene Plex); type: cell-based; settings: 1 μg/ml, 24 h
Procedure: (§1) Splenocytes were isolated from naïve BALB/c mice by dissociating spleens with a GentleMACS (Miltenyi) instrument, then filtration through […] screens. For other species, blood was obtained through venipuncture or cardiac puncture into heparinized tubes, then diluted 1:1 with PBS or HBSS and layered onto Ficoll-Histopaque (GE Healthcare) for blood from healthy human volunteers and cynomolgus macaques, Lympholyte-Mammal (Cedarlane Labs) for New Zealand white rabbits, Sprague-Dawley rats, Hartley guinea pigs, cotton rats, and ferrets, followed by standard density centrifugation techniques. […]
(§2) PBMCs (human, cynomolgus macaque, guinea pig, ferret, rabbit, rat, and cotton rat) or splenocytes (mouse) were seeded onto 96-well flat bottom plates at 5 x 10^5 cells/well and stimulated with TLR4 agonists at 1 and 0.2 μg/ml for 24 h at 37°C. […] For human, cyno, mouse, and rat, cell-free SNs were analyzed via human, NHP, mouse, and rat MILLIPLEX kits. For GP, ferret, rabbit, and CR, cells were lysed by Millipore lysing buffer and snap frozen at -70 C until ready for analysis by Affymetrix QuantiGene 2.0 Plex kits. […] Signal was detected using a Bioplex 200 instrument (BioRad). […]
Fig 9 Species-specific activation of IL-6, TNF-α, and chemokine expression in primary cells. […] For human, cyno, mouse, and rat, SNs were analyzed via human, NHP, mouse, and rat MILLIPLEX kits. […]

mouse splenocytes = assay: Cytokine induction in mouse splenocytes (mouse MILLIPLEX); type: cell-based, BALB/c mouse; settings: 1 and 0.2 μg/ml, 24 h
Procedure: as §1, §2
Fig 6 The Ugi compound-induced cytokine profile is similar to MPL and LPS in human PBMCs but not mouse splenocytes. […] SNs were analyzed via human and mouse MILLIPLEX kits. […]

SMILES	serum cytokine induction in wild-type C57BL/6 mice (wild-type C57BL/6 mice)	activation of cotton rat PBMCs (cotton rat PBMCs)	reactivity of mouse splenocytes (cytokine secretion) (mouse splenocytes)
Cc1cc(C)cc(N(C(=O)c2cc(-c3ccccc3)n(-c3ccccc3)n2)C(C(=O)NC2CCCC2)c2ccc(CC(=O)O)cc2)c1 (stereo not drawn) [AZ618, 2-(4-(2-(cyclopentylamino)-1-(N-(3,5-dimethylphenyl)-1,5-diphenyl-1H-pyrazole-3-carboxamido)-2-oxoethyl)phenyl)acetic acid]	not AZ618 induced	able to activate	–
CC(C)(C)c1ccc(N(C(=O)c2cc(-c3ccccc3)n(-c3ccccc3)n2)C(C(=O)NC2CCCC2)c2ccc(CC(=O)O)cc2)cc1 (stereo not drawn) [AZ902]	–	–	marginal activation
